Consider two substances from publication PMC12414742, “Amphipathic Octenyl‐Alanine Modified Peptides Mediate Effective siRNA Delivery” (Journal of Peptide Science, 2025).

In data set [1] the test system is siRNA. As to the kind of experiment: Heparin displacement assay (complex stability). The format is physicochemical. The settings on record: peptide/siRNA complexes at MR30 in MQ water, heparin at different concentrations, 15 min RT, SYBR Gold fluorescence, n = 3 in duplicates. As for the experimental part: For the heparin displacement assay, peptide/siRNA complexes were formed in MQ water at MR30. Fifty microliters of complexes was then transferred to each well of a black 96‐well plate and mixed with 100 μL of 2X SYBR Gold dye (Thermo Fisher Scientific, USA), incubated, and then 50 μL of heparin (Sigma‐Aldrich, USA) solution with different concentrations was added. After 15 min at RT, the fluorescence was measured by Synergy Mx Microplate Reader (BioTek, USA) (ex = 495 nm, em = 537 nm) to determine the amount of accessible siRNA in the complexes. The data was normalized to the fluorescence of free siRNA (defined as 100%) and are expressed as a percentage of accessible siRNA. The results are shown as mean ± SEM of n = 3 in duplicates.

Data set [2] in a line: CD spectroscopy, secondary structure estimation. The format is physicochemical. As to conditions: CD in MQ water, 100 μM peptide, 25°C, Reed's estimation; for proportion of alpha helical structure: 1-mm cuvette. The procedure: CD spectra were recorded on a Jasco J‐1500 CD spectrometer (Jasco, Japan) at 25°C at a concentration of 100 μM. Peptides were dissolved in MQ water and measured using 1‐mm pathlength quartz cuvette. The secondary structure estimates were calculated on the “Protein Secondary Structure Estimation” plugin in the Spectra Manager 2.13 software by using Reed's estimation.

In data set [3] the test system is bovine red blood cells. Description: Hemolysis (erythrocyte leakage) assay. Type of data set: cell-based. As to conditions: peptide alone 10 μM, 2% RBCs in HBG pH 5.5, 37°C, 1 h, absorbance 450 nm, n = 3 in triplicates. As for the experimental part: The hemolysis experiments were carried out with bovine red blood cells (RBCs) (Håtunalab, Sweden). The cells were washed three times with HBG 7.4 and then diluted to a final concentration of 2% RBCs in HBG with noted pH. Ten microliters of peptides was added to 190 μL of cells in PCR plates and shaken at 37°C for 1 h. Then the cells were spun down at 500 × g, and 100 μL of supernatant was transferred to transparent 96‐well tissue culture plates. The absorbance of released hemoglobin was measured at 450 nm on a plate reader (Tecan Sunrise, Switzerland). As a positive control, 10% Triton X‐100 was used, while HBG served as a negative control. The percentage of hemolysis was calculated by the formula: hemolysis (%) = [(AS − AN)/(AP − AN)] × 100, where AS is the absorbance for the sample, AP for positive control, and AN for negative control. The results are shown as mean ± SEM of n = 3, done in triplicates.

A short description of data set [4]: DLS size, PDI and zeta potential of peptide/siRNA complexes. Type of data set: physicochemical. The procedure: The physicochemical properties (nanoparticle size, polydispersity index [PDI], and zeta potential) of peptide/siLuc complexes were measured by DLS (dynamic light scattering) using the Zetasizer Nano ZS apparatus (Malvern Instruments, UK).
The size and zeta potential of peptide/siLuc particles were measured at MR30 for hPep1, hPep2, and Ctrl peptide. For hPep3, measurements were also taken at different MRs (5–35). The complexes were formulated in 50 μL at a 2 μM final siRNA concentration for size measurement. The average diameter was obtained from three technical replicates, and one measurement was set to five runs (run duration 8 s) in disposable ZEN0040 cuvettes (Malvern Instruments, UK).
To measure the zeta potential, the complexes were diluted eight times in 10 mM HEPES 7.4 buffer. The zeta potential was obtained from three technical measurements in disposable DTS1070 cuvettes (Malvern Instruments, UK) with the number of runs set to automatic. The results are shown as an average of three separate experiments (mean ± SEM). All measurements were performed at 22°C.

The conditions of data set [5]: cited from earlier work. The text has this:
Given that the differences in the peptide hydrophobicity and amphipathicity come from the number of carbons introduced by the alanine and alkenyl‐alanine side chains: three carbons for Ctrl peptide, 13 and 17 for hPep1 an ...

Where [6] appears, read: DLS, peptide/siLuc complexes at MR30, 2 μM siRNA, 22°C, mean of n = 3.

Where no end group is shown, it is not given here.

For the substance LAKLAKAAAKLLKAAAKAL-NH2 [Ctrl], the “stability of the NPs against heparin (siRNA release)” value in data set [1] is “Ctrl < hPep1 < hPep2 < hPep3”. In addition, in data set [2], the “proportion of alpha helical structure” value is on record as “zero” and the random structure estimate is greater than 60%. Also, the “hemolytic (lytic) activity” value in data set [3] was “almost no activity”. Moreover, the “NP size (hydrodynamic diameter)” value in data set [4] (setting [6]) is reported as ~ 2000 nm. The “zeta potential of the complexes” value in data set [4] (all tested MRs (5-35)) was “stayed negative at all tested MRs”. Moreover, the zeta potential in data set [4] (peptide/siLuc complexes at MR30, diluted eight times in 10 mM HEPES 7.4, 22°C, mean of n = 3) is recorded as −23.7 mV.

For “H‐LAKLAKA{R8}AKLLKA{S5}AKAL‐NH2 [hPep1, C-terminally amidated amphipathic CPP with one octenyl- and one pentenyl-alanine]”, the “stability of the NPs against heparin (siRNA release)” value in data set [1] is listed as “Ctrl < hPep1 < hPep2 < hPep3”. Besides, in data set [2], the “proportion of alpha helical structure” value was 15% and the random structure estimate is listed as greater than 60%. Moreover, the “order of hydrophobicity of the peptides” value in data set [5] is on record as “hPep1 < hPep2 < hPep3”. In data set [4] (setting [6]), this substance returned a PDI of 0.265.
